Data: paper PMC10347458 (Leukemia, 2023)
In brackets after ≈: the same amount, converted by molar mass. Read-outs that look alike come from different tables or passages of the source. One block for each compound: values may come before it.

Assays:
[1] = type: in vivo, NSG mice; conditions: for AUC(0-inf) / CL/F / Cmax / Tmax / half-life / AUC(0-t): NSG, mouse, in vivo, po; for AUC(0-t): AUC0–24hrs
pCRKL = conditions: chronic myeloid leukemia (CML) patients; cited from earlier work
human T-ALL samples = experiment: Ex vivo leukemia sensitivity; type: cell-based
[2] = molecular target: pLCK (phosphorylated LCK) (Homo sapiens, UniProt P06239); experiment: PD: pLCK; type: in vivo; conditions: for Median duration of pLCK/LCK <50% (10th-90th percentile): mice (Table 2)
pLCK (phosphorylated LCK), sequence (P06239 whole entry): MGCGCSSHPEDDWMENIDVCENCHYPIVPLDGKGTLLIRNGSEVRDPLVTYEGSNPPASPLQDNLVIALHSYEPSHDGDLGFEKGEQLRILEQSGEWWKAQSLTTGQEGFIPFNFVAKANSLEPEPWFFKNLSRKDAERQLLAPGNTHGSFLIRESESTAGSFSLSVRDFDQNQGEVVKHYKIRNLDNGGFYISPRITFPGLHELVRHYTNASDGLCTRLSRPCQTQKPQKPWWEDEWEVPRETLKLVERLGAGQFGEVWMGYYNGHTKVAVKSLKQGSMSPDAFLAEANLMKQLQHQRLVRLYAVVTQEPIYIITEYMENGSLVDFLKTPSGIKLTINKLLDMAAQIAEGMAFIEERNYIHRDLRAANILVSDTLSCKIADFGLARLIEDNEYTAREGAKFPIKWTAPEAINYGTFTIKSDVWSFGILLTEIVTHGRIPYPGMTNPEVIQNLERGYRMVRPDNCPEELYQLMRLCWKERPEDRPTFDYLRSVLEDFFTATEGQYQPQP

[3] = test system: LCK-activated T-ALL PDX models; experiment: In vivo evaluation of ponatinib efficacy in T-ALL PDXs; design: species or system NSG mice; conditions: 30 mg/kg once daily oral, three T-ALL PDX models, blast % in peripheral blood
LCK (T316I) in KOPT-K1-R = LCK (T316I) in KOPT-K1-R (Homo sapiens, UniProt P06239, T316I); conditions: 100nM, 3 hrs treatment
LCK (T316I) in KOPT-K1-R, sequence (P06239 whole entry T316I): as the sequence (P06239 whole entry) above, with T316I counted along it

AUC(0-inf) ([1]; 20 mg/kg): 500 ng·h/mL | CL/F ([1]; 20 mg/kg): 667 mL/min/kg | Cmax ([1]; 20 mg/kg): 102 ng/mL | Tmax ([1]; 20 mg/kg): 1.17 h | half-life ([1]; 20 mg/kg): 0.35 h | AUC(0-inf) ([1]; 40 mg/kg): 1950 ng·h/mL | CL/F ([1]; 40 mg/kg): 341 mL/min/kg | Cmax ([1]; 40 mg/kg): 366 ng/mL | Tmax ([1]; 40 mg/kg): 1.17 h | half-life ([1]; 40 mg/kg): 0.34 h | AUC(0-t) ([1]; 40 mg/kg): 1940 ng·h/mL
Compound: Cc1nc(Nc2ncc(C(=O)Nc3c(C)cccc3Cl)s2)cc(N2CCN(CCO)CC2)n1 [dasatinib]
Time above 50% pCRKL inhibition considered sufficient to elicit a clinical response (pCRKL): 12.8 hrs per day | Dasatinib sensitivity (LC50 <80nM) observed (human T-ALL samples; adult T-ALL): 9.1% | Dasatinib sensitivity (LC50 <80nM) observed (human T-ALL samples; pediatric T-ALL): 47.5%

Compound: Cc1ccc(C(=O)Nc2ccc(CN3CCN(C)CC3)c(C(F)(F)F)c2)cc1C#Cc1cnc2cccnn12 [ponatinib]
EC90 ([2]; po, read-out: EC90 (CV%)): 0.063 µg/mL (≈ 0.118 µM) | Median duration of pLCK/LCK <50% (10th-90th percentile) ([2]; ponatinib 15 mg/kg oral): 15 mg/kg 10.5 (0, 24.0) hrs/day | Median duration of pLCK/LCK <50% (10th-90th percentile) ([2]; ponatinib 30 mg/kg oral): 30 mg/kg 14.8 (0, 24.0) hrs/day | Leukemia growth in mice vs vehicle control [3]: significantly inhibited leukemia growth | AUC(0-inf) ([1]; 15 mg/kg): 1530 ng·h/mL | CL/F ([1]; 15 mg/kg): 163 mL/min/kg | Cmax ([1]; 15 mg/kg): 181 ng/mL | Tmax ([1]; 15 mg/kg): 3.04 h | half-life ([1]; 15 mg/kg): 1.92 h | AUC(0-t) ([1]; 15 mg/kg, ponatinib 15 mg (15 mg/kg) single oral dose, NSG mice, median (5th-95th percentile)): 1530 ng·h/mL | AUC(0-inf) ([1]; 30 mg/kg): 3010 ng·h/mL | CL/F ([1]; 30 mg/kg): 166 mL/min/kg | Cmax ([1]; 30 mg/kg): 356 ng/mL | Tmax ([1]; 30 mg/kg): 3.08 h | half-life ([1]; 30 mg/kg): 1.92 h | AUC(0-t) ([1]; 30 mg/kg, ponatinib 30 mg (30 mg/kg) single oral dose, NSG mice, median (5th-95th percentile)): 3000 ng·h/mL | AUC0–24hrs ([1]; ponatinib 30 mg (30 mg/kg) single oral dose, NSG mice, median (5th-95th percentile)): 2996.56 (2707.46–3351.17) ng hr/mL | Block of LCK phosphorylation (LCK (T316I) in KOPT-K1-R): around 50% | LC50 compared with that of dasatinib (human T-ALL samples; 51 samples with both drugs tested, P =0.0038, Wilcoxon matched-pairs signed rank test): significantly lower | CC50 (human T-ALL samples; Homo sapiens, read-out: Median LC50): 433 nM | Samples classified as sensitive to ponatinib (LC50 cutoff 90nM) (human T-ALL samples; all 52 T-ALL cases (n=17)): 32.7%
